Measurements reported in patent US20240316046A1, “ERK1/2 INHIBITOR COMBINATION THERAPY” (Asana Biosciences, LLC, priority 2021, published 2024).

What was measured:
[1] = tested on: RAS/MAPK pathway (P-RSK, P-ERK) in BRAF V600E mutant CRC cell lines RKO and HT-29; assay: Western blot of phosphorylation of RSK (P-RSK) and ERK (P-ERK), encorafenib in combination with MEK and ERK inhibitors; assay type: cell-based, human; details: plus BRAF inhibitor encorafenib; incubation up to 72 hours; Compound 1 at one-tenth the concentration used for the MEK and other ERK inhibitors; FIG. 3A-3D
Source text: Treatment of two BRAF V600E mutant CRC cell lines, RKO and HT-29, with encorafenib in combination with the MEK inhibitor binimetinib, the ERK inhibitor Compound 1, the ERK inhibitor LY3214996, and the ERK inhibitor ravoxertinib. The Western blot gels depict phosphorylation of RSK (P-RSK) and ERK (P-ERK). Higher levels of phosphorylation are depicted by higher (i.e., darker) band intensity. Total GAPDH protein (GAPDH) serves as a loading control. ERK signaling activity is represented by the phosphorylation state of RSK (P-RSK), which is a downstream target of ERK. The column values indicate the duration of compound incubation of up to 72 hours. FIG. 3A-FIG. 3D.

[2] = tested on: cell lines harboring a BRAF^V600E mutation (RKO, HT-29, WiDr, MDST8, LIM2405 cells); assay: In-vitro 3D cell viability assay (CellTiter-Glo 3D), dilution matrix of compound 1 versus encorafenib, BLISS model; assay type: cell-based, human; details: compound 1 combined with encorafenib, 5 days post-treatment, FIG. 1A-1E
Experimental: Cells were plated at a density of 1,000 (RKO, HT-29, WiDr, MDST8) or 5,000 (LIM2405) cells per well in a 96-well plate (Corning #3903). Cells were allowed to adhere overnight, and compound was added in a matrix format using a HP Tecan D300e digital dispenser (Switzerland). Compound 1 was added in a 1:3 dilution series (8-point dose response) from bottom to top of plate (rows B-H) and encorafenib was added in a 1:3 dilution series ([…] dose response) from right to left (columns 2-11). Final DMSO concentration was normalized across the plate. Cell viability was assessed 5-days post-treatment using Promega CellTiter-Glo 3D Cell Viability Assay reagent (#G9683) according to manufacturer's protocol.
RKO cells (FIG. 1A), HT-29 cells (FIG. 1B), WiDr cells (FIG. 1C), MDST8 cells (FIG. 1D), and LIM2405 (FIG. 1E) were treated with a dilution matrix of compound 1 versus encorafenib in 3D cell viability assays. Cell viability, as expressed as a percentage of viable cells relative to vehicle treated control, is shown in the matrix.

[3] = tested on: encorafenib refractory-BRAF^V600E RKO and WiDr CDX models; assay: In-vivo assay, tumor growth in xenograft (CDX) models; set-up: species or system Female Balb/c nude mice; details: compound 1 combined with encorafenib, oral, FIG. 2A, 2B
Experimental: The vehicle/control article, 0.5% Methyl Cellulose & 0.1% Tween 80 or 100 mM acetic acid in deionized water with pH adjustment to 4.8-5.0, was prepared and stored under ambient conditions throughout the study period.
The test article compound 1 was freshly prepared in vehicle of 0.5% Methyl Cellulose & 0.1% Tween 80 weekly and stored under ambient conditions. The combination agent, encorafenib, was freshly prepared in vehicle of 0.5% CMC and 0.5% Tween 80 weekly and stored at 2-8° C.
Female Balb/c nude mice were purchased from the Beijing Vital River Laboratory Animal Technology Co., Ltd. Mice were hosted at special pathogen-free (SPF) environment of vivarium facility and acclimated to their new environment for at least 3 days prior to initiation of any experiments. Mice were between 6-8 weeks of age at the time of implantation.
RKO is a human CRC tumor cell line that harbors a BRAF^V600E mutation. The RKO cell line was purchased from the American Type Culture Collection (ATCC® CRL-2577™). RKO cells were cultured in medium containing EMEM plus 10% Fetal Bovine Serum (FBS) supplemented with non-essential amino acids at 37° C. in an atmosphere of 5% CO2 in air. RKO cells in 200 μL cell suspensions containing 2×10^6 cells mixed with 50% Matrigel were implanted into mice subcutaneously. […]

Structure (SMILES) | RAS/MAPK pathway feedback reactivation (P-RSK, P-ERK) [1] | combination benefit in vitro (cell viability, BLISS model) [2] | combination benefit in vivo (tumor growth curves) [3]
Cc1cnc(NC2CCOCC2)nc1-n1cnc(C(=O)N[C@H](CN)c2cc(F)cc(Cl)c2)c1 [Compound 1, (S)-N-(2-amino-1-(3-chloro-5-fluorophenyl)ethyl)-1-(5-methyl-2-((tetrahydro-2H-pyran-4-yl)amino)pyrimidin-4-yl)-1H-imidazole-4-carboxamide] | blocked the RAS/MAPK pathway feedback reactivation | combination benefit | combination benefit
COC(=O)N[C@@H](C)CNc1nccc(-c2cn(C(C)C)nc2-c2cc(Cl)cc(NS(C)(=O)=O)c2F)n1 [encorafenib, Encorafenib, reference compound] |  | combination benefit | combination benefit
